Test results published in paper PMC10331583, “Control of fibrosis with enhanced safety via asymmetric inhibition of prolyl‐tRNA synthetase 1” (EMBO Molecular Medicine, 2023).
“And” between values parts separate entries of the source, which are not always exact repeats. Equal entries are not always repeated.

Experiments:
C57BL/6 mice [1] = assay: Bleomycin‐induced lung fibrosis, therapeutic model 2 (compounds from 2 weeks after bleomycin); format: in vivo; settings: model 2, drug administration from day 14
Procedure: To examine therapeutic efficacy of DWN12088, all experiments were conducted following the international guidelines on the ethical use of experimental animals and approved by the Institutional Animal Care and Use Committee of Daewoong Pharmaceutical (IACUC‐21‐014). C57BL/6 mice (7–8‐week‐old, male, obtained from Orient Bio) were anesthetized with Zoletil and injected intratracheally with 100 μl bleomycin (2 units/kg) (Merck, B8416) to induce lung fibrosis. A group of disease‐free mice (“untreated”) were injected with PBS instead of bleomycin. After a week, mice treated with bleomycin were randomized to (i) vehicle (saline), (ii) HF 0.05 mg/kg, (iii) HF 0.1 mg/kg, and (iv) DWN12088 10 mg/kg groups (n = 5 for each group) according to their body weight. The drugs were orally administered once daily for 2 weeks, and then the outcome was analyzed. For the experiments testing the effect of the compounds 2 weeks after bleomycin challenge, the experiment was approved by IACUC of Daewoong Pharmaceutical (IACUC‐22‐009). […]
The collagen contents of lung tissues were measured using Sircol™ soluble collagen assay (Biocolor Ltd., S1000) following the manufacturer's instructions. […] Tissue extracts were incubated with Sirius red dye, and the absorbance was determined at 540 nm using a spectrophotometer. […]

C57BL/6 mice [2] = assay: Bleomycin‐induced lung fibrosis, therapeutic model 1 (compounds from a week after bleomycin); format: in vivo; settings: for BALF total cell count, average / BALF total cell count, single animal / Collagen contents, average / Collagen contents, single animal / Fibrotic area, average / Fibrotic area, single animal / SpO2, average / SpO2, single animal: BLM +
Procedure: To examine therapeutic efficacy of DWN12088, all experiments were conducted following the international guidelines on the ethical use of experimental animals and approved by the Institutional Animal Care and Use Committee of Daewoong Pharmaceutical (IACUC‐21‐014). C57BL/6 mice (7–8‐week‐old, male, obtained from Orient Bio) were anesthetized with Zoletil and injected intratracheally with 100 μl bleomycin (2 units/kg) (Merck, B8416) to induce lung fibrosis. A group of disease‐free mice (“untreated”) were injected with PBS instead of bleomycin. After a week, mice treated with bleomycin were randomized to (i) vehicle (saline), (ii) HF 0.05 mg/kg, (iii) HF 0.1 mg/kg, and (iv) DWN12088 10 mg/kg groups (n = 5 for each group) according to their body weight. The drugs were orally administered once daily for 2 weeks, and then the outcome was analyzed. For the experiments testing the effect of the compounds 2 weeks after bleomycin challenge, the experiment was approved by IACUC of Daewoong Pharmaceutical (IACUC‐22‐009). The experimental procedures were performed following the methods described previously, with the exception that the compounds were administered 2 weeks after bleomycin challenge. The experiments were conducted as non‐blind tests.
Mice were anesthetized with Zoletil for 10 min, and a portable mouse pulse oximeter (Veterinary Pulse Oximeter, Berry Electronic) was placed on each mouse's body. The measurements were continued to allow the recording of 3 min of a stable signal.
The collagen contents of lung tissues were measured using Sircol™ soluble collagen assay (Biocolor Ltd., S1000) following the manufacturer's instructions. Briefly, the right lung lobes were homogenized, and collagen was solubilized in 0.5 M acetic acid. Tissue extracts were incubated with Sirius red dye, and the absorbance was determined at 540 nm using a spectrophotometer. The amount of collagen was expressed relative to the wet weight of the tissues.
The lung tissues were fixed in paraformaldehyde and embedded in paraffin. The paraffin‐embedded blocks were sectioned at 4 μm and then mounted onto glass slides. After deparaffinization and rehydration, the slides were fixed with Bouin's solution (Sigma Aldrich, HT10132‐1L) for 1 h. Then, the slides were incubated with hematoxylin (Sigma Aldrich, MHS16‐500ML), Biebrich Scarlet (Sigma Aldrich, B‐6008) and acid fuchsin (Sigma Aldrich, A‐3908), phosphomolybdic (DAEJUNG, 6531‐4105) and phosphotungstic acid (DAEJUNG, 6539‐4105), aniline blue (DAEJUNG, 1087‐4125), and then 1% (v/v) acetic acid (DUKSAN, UN2789). After dehydration, the slides were mounted onto cover slips and scanned using slide scanner (3D HISTECH, Pannoramic MIDI). Fibrotic area of the images was quantified by using Image J plugin, color deconvolution 2.

ICR (CrljOri: CD1) mice = assay: Two‐week repeated‐dose toxicity study, HF versus DWN12088; format: in vivo
Procedure: (§1) To compare the in vivo toxicity of HF and DWN12088, all experiments were conducted following the international guidelines on the ethical use of experimental animals and approved by the Institutional Animal Care and Use Committee of KNOTUS (KNOTUS IACUC 21‐KE‐250 and KNOTUS IACUC 21‐KE‐359). ICR (CrljOri: CD1) mice (7‐week‐old, male, obtained from Koatech) were randomized (n = 6 for each group) and then orally administered with the indicated amounts of HF or DWN12088 once daily for 2 weeks. In the high‐dose group, the dose of DWN12088 was reduced from 120 mg/kg to 90 mg/kg from day 6. […] Body weight was measured at day 1, 2, 3, 4, 5, 8, 14, and 15.
(§2) After administering the drugs for 2 weeks, mice were fasted overnight and anesthetized with isoflurane. Blood samples were collected in EDTA‐coated tubes, and the following parameters were determined using a hematology analyzer (ADVIA 2120, SIEMENS, USA); red blood cell, platelet count, hematocrit, white blood cell, red cell distribution width, hemoglobin concentration distribution width, hemoglobin concentration, neutrophil, mean corpuscular volume, lymphocyte, mean cell hemoglobin, monocyte, mean cell hemoglobin concentration, eosinophil, mean platelet volume, basophil, reticulocytes, and large unstained cells.
(§3) For clinical chemistry, the remaining blood samples were incubated in a vacutainer tube with clot activator and then centrifuged to prepare serum. The following parameters were measured in the serum using a chemistry analyzer (7180, Hitachi, Japan) and electrolyte analyzer (AVL 9180, Roche, Switzerland); aspartate aminotransferase, albumin, alanine aminotransferase, albumin/globulin ratio, alkaline phosphatase, blood urea nitrogen, creatine phosphokinase, creatinine, total bilirubin, inorganic phosphorus, glucose, calcium, total cholesterol, sodium, triglyceride, potassium, total protein, and chloride.
(§4) After blood collection, blood was drained by incising the abdominal aorta and posterior vena cava, and all organs of the skin, brain, thoracic cavity, and abdominal cavity were observed. The relative weights of the lung, spleen, liver, heart, kidney, thymus, and testes were calculated by dividing the weight of each organ by the body weight. The experiments were conducted as non‐blind test.

[3] = as above; format: in vivo, mice; settings: male, ICR (CrljOri: CD1), mouse, in vivo; oral once daily for 2 weeks, ICR mice
Procedure: as §1, §2, §3, §4

[4] = tested on: WI‐26 VA4 cells stably expressing PARS1 FA/EA/RL mutant; assay: Collagen ELISA in cells stably expressing PARS1 mutant; settings: for Collagen level, average: average of 4 experiments; for Collagen level, single replicates: replicates of Experiments #1-#4
[5] = WI-26 VA4 Flag-PARS1 FA/EA/RL, 0.3 nM
[6] = WI-26 VA4 Flag-PARS1 FA/EA/RL, 1 nM
[7] = WI-26 VA4 Flag-PARS1 FA/EA/RL, 3 nM
[8] = WI-26 VA4 Flag-PARS1 FA/EA/RL, 10 nM
[9] = WI-26 VA4 Flag-PARS1 FA/EA/RL, 30 nM
[10] = WI-26 VA4 Flag-PARS1 FA/EA/RL, 100 nM
[11] = WI-26 VA4 Flag-PARS1 FA/EA/RL, 300 nM
[12] = WI-26 VA4 Flag-PARS1 FA/EA/RL, 1000 nM

O=C(CC1NCCCC1O)Cn1cnc2cc(Br)c(Cl)cc2c1=O (stereo not shown) [HF, Halofuginone, reference compound]
fibrotic properties (C57BL/6 mice [1]): less apparent
SpO2 (C57BL/6 mice [2]; 0.05 mg/kg oral once a day, 2 weeks (Figs 1E and EV4G)): did not show an improvement in SpO2
BALF total cell count, average (C57BL/6 mice [2]; 0.05 mg/kg): 10.46 x105 cells
BALF total cell count, single animal (C57BL/6 mice [2]; 0.05 mg/kg): 10 x105 cells and 12 x105 cells and 9.3 x105 cells and 11 x105 cells
Collagen contents, average (C57BL/6 mice [2]; 0.05 mg/kg): 308.0 μg/right lung
Collagen contents, single animal (C57BL/6 mice [2]; 0.05 mg/kg): 314 μg/right lung and 298 μg/right lung and 320 μg/right lung and 264 μg/right lung and 344 μg/right lung
Fibrotic area, average (C57BL/6 mice [2]; 0.05 mg/kg): 275.3 % of control
Fibrotic area, single animal (C57BL/6 mice [2]; 0.05 mg/kg): 303.9 % of control and 169.0 % of control and 380.1 % of control and 194.5 % of control and 329.1 % of control
SpO2, average (C57BL/6 mice [2]; 0.05 mg/kg): 71.2%
SpO2, single animal (C57BL/6 mice [2]; 0.05 mg/kg): 72% and 64% and 66% and 76% and 78%
BALF total cell count, average (C57BL/6 mice [2]; 0.1 mg/kg): 7.38 x105 cells
BALF total cell count, single animal (C57BL/6 mice [2]; 0.1 mg/kg): 7.2 x105 cells and 9 x105 cells and 5.1 x105 cells and 7.4 x105 cells and 8.2 x105 cells
Collagen contents, average (C57BL/6 mice [2]; 0.1 mg/kg): 231.8 μg/right lung
Collagen contents, single animal (C57BL/6 mice [2]; 0.1 mg/kg): 254 μg/right lung and 195 μg/right lung and 275 μg/right lung and 201 μg/right lung and 234 μg/right lung
Fibrotic area, average (C57BL/6 mice [2]; 0.1 mg/kg): 171.2 % of control
Fibrotic area, single animal (C57BL/6 mice [2]; 0.1 mg/kg): 180.4 % of control and 138.3 % of control and 115.6 % of control and 249.0 % of control and 172.5 % of control
SpO2, average (C57BL/6 mice [2]; 0.1 mg/kg): 80.0%
SpO2, single animal (C57BL/6 mice [2]; 0.1 mg/kg): 78% and 81% and 85% and 82% and 74%
collagen deposition, Masson's trichrome staining (C57BL/6 mice [2]; lung tissue (Fig 1H and I)): decreased collagen deposition in the interstitial spaces
fibrotic properties (C57BL/6 mice [2]; model 1, drug administration from day 7): significantly reduced fibrotic properties
Mortality: Found dead (ICR (CrljOri: CD1) mice; 1.5 mg/kg oral once daily, 1 animal on day 5, 2 on day 6): Found dead: 3/6 (1 animal on day 5, 2 animals on day 6) Terminal sacrifice: 3/6 (on day 6)
Mortality: Terminal sacrifice (ICR (CrljOri: CD1) mice; 1.5 mg/kg oral once daily, on day 6): Found dead: 3/6 (1 animal on day 5, 2 animals on day 6) Terminal sacrifice: 3/6 (on day 6)
reduction in body weight (ICR (CrljOri: CD1) mice; mouse, in vivo): > 10%
NOAEL at 2 weeks [3]: < 0.375 mg/kg
IC50 ([4]; Homo sapiens, WI26VA4, read-out: IC50, collagen level): 15.4 nM
Collagen level, average [4, 5]: 101.54 % of control
Collagen level, single replicates [4, 5]: 102.13 % of control and 120.79 % of control and 96.95 % of control and 94.78 % of control and 97.01 % of control and 91.61 % of control and 85.22 % of control and 99.08 % of control and 88.51 % of control and 103.40 % of control and 115.28 % of control and 123.69 % of control
Collagen level, average [4, 6]: 101.93 % of control
Collagen level, single replicates [4, 6]: 100.26 % of control and 124.52 % of control and 104.32 % of control and 114.35 % of control and 95.53 % of control and 102.09 % of control and 95.23 % of control and 96.53 % of control and 98.60 % of control and 104.60 % of control and 92.58 % of control and 94.60 % of control
Collagen level, average [4, 7]: 97.24 % of control
Collagen level, single replicates [4, 7]: 74.39 % of control and 119.08 % of control and 111.81 % of control and 77.98 % of control and 96.46 % of control and 94.83 % of control and 78.75 % of control and 99.39 % of control and 89.90 % of control and 103.30 % of control and 102.16 % of control and 118.87 % of control
Collagen level, average [4, 8]: 70.83 % of control
Collagen level, single replicates [4, 8]: 64.31 % of control and 91.60 % of control and 60.26 % of control and 74.23 % of control and 77.87 % of control and 69.39 % of control and 82.84 % of control and 75.26 % of control and 63.48 % of control and 78.01 % of control and 54.94 % of control and 57.79 % of control
Collagen level, average [4, 9]: 26.11 % of control
Collagen level, single replicates [4, 9]: 25.57 % of control and 24.68 % of control and 22.36 % of control and 32.03 % of control and 25.38 % of control and 25.85 % of control and 26.88 % of control and 24.32 % of control and 26.43 % of control and 20.94 % of control and 29.04 % of control and 29.85 % of control
Collagen level, average [4, 10]: 4.47 % of control
Collagen level, single replicates [4, 10]: 4.44 % of control and 3.82 % of control and 4.24 % of control and 4.79 % of control and 5.13 % of control and 4.94 % of control and 4.02 % of control and 4.80 % of control and 4.41 % of control and 3.44 % of control and 4.93 % of control and 4.63 % of control
Collagen level, average [4, 11]: 3.35 % of control
Collagen level, single replicates [4, 11]: 2.94 % of control and 2.13 % of control and 2.73 % of control and 2.78 % of control and 5.38 % of control and 5.19 % of control and 3.51 % of control and 3.53 % of control and 4.16 % of control and 2.06 % of control and 3.52 % of control and 2.22 % of control
Collagen level, average [4, 12]: 4.10 % of control
Collagen level, single replicates [4, 12]: 4.74 % of control and 3.22 % of control and 4.71 % of control and 3.16 % of control and 4.63 % of control and 4.53 % of control (2×) and 4.37 % of control and 4.67 % of control and 2.44 % of control and 4.55 % of control and 3.67 % of control
HillSlope, collagen level ([4]; WI-26 VA4 Flag-PARS1 FA/EA/RL, four-parameter fit): -1.829
LogIC50, collagen level ([4]; WI-26 VA4 Flag-PARS1 FA/EA/RL, log of concentration in nM, four-parameter fit): 1.188
